Assay results as given in patent US8252790B2, “Pyrazole-3-carboxamide derivative having 5-HT2B receptor antagonist activity” (Raqualia Pharma Inc., priority 2008, dated 2012).

Test system: TNBS induced IBS model
Assay: Colonic distension study in TNBS induced rat IBS model (pain threshold)
Format: in vivo
Conditions: male SD rats, TNBS 50 mg/kg, 7 days after surgery; 10 mg/kg p.o.; FIG. 1
Description: [Evaluation of Therapeutic Effects on IBS in the Rat]
The pharmacological effects of the test compounds in this invention was evaluated by measuring the improvement effect against lowering of the pain threshold at colon extension stimulation in TNBS induced IBS model.
For details, please refer to the literature, Katsuyo Ohashi at al., Pharmacology, 81(2): 144-150 (2008).
The median incision was conducted under anesthesia in animals, male SD rats, 240-270 g. TNBS solution (50 mg/kg, 30% methanol) was treated at the beginning of the colon in the rats. After the treatment, the cecum is put back into the abdominal cavity. The muscle wall is then sutured. After operation the animals were housed in the normal environment, and were used for the pharmacological evaluation after 7 days from the surgery. The colon extension stimulation was used for the evaluation of the compounds, Diop L. et al., J Pharmacol Exp Ther. 302(3): 1013-22 (2002). The balloon (5 cm in length) is inserted through the anus and kept in position (tip of balloon is 5 cm from the anus). Then the balloon was progressively inflated by step of 5 mm Hg, from 0 to 70 mm Hg by using Barostat (Barostat DISTENDER II R, G & J, CANADA). The pain threshold was evaluated the pressure that corresponded to produced the first abdominal contraction (abdominal cramp: Wesselmann U et al., (1998) Neurosci Lett 246: 73-76). […]

## Cn1nc(C(=O)NCCN2CCOCC2)cc1-c1cc2cccnc2[nH]1 [Example compound 24, 1-methyl-N-[2-(morpholin-4-yl)ethyl]-5-{1H-pyrrolo[2,3-b]pyridin-2-yl}-1H-pyrazole-3-carboxamide]
  improvement effect against lowering of the pain threshold at colon extension stimulation: improvement effects against lowering of the pain threshold
